Laboratory results taken from patent US7759313B2, “Induction method for cell differentiation” (Obschetstvo S Ogranichennoi Otvetstvennostiyu …, priority 2002, dated 2010).
Several values for one entry are separate records, joined by “and”; a condition that tells them apart may be missing. Equal entries are not always repeated. Entries after “also recorded” stand apart in the source; their conditions may differ. Where two headings read alike, the source gives them in different places.

Key:
[1] = test system: inoculated B-16 melanoma; assay: Distribution of tumor cells by cell cycle phases (DNA content); assay type: in vivo, mice; settings: 0.5 mg/kg intragastrically daily for 10 days
Method: Tests were done on inoculated B-16 melanoma. The effect of Dicarbamine on the distribution of tumor cells was studied on the basis of DNA content at different times following administration of the preparation. From day 6 after the tumor inoculation mice for 10 days were daily intragastrically given with 0.5 mg/kg Dicarbamine. Animals were sacrificed with subsequent investigation of tumor material at days 10, 12, 16 and 18 after inoculation, i.e. days 5 and 7 respectively after Dicarbamine administration as well as in 2 and 4 days after termination of Dicarbamine 10-day dosing.

[2] = test system: murine B-16 melanoma cells; assay: Initial rate of cell proliferation (IRCP), B-16 cells; assay type: cell-based
Method: The study was conducted on two continuous cell cultures growing in the form of a monolayer in a tissue culture (on murine B-16 melanoma cells and human M-5 melanoma cells). IN was administered at concentrations 70-700 IU/ml. Dicarbamine (D) was transferred into stock solution (1.000 μM), sterilized through filters with 0.22 μm pore diameter and then diluted to concentrations 0.01 and 1.0 μM.
The effect of preparations on cells was assessed on the basis of initial rate of cell proliferation (IRCP). This index (IRCP), which is usually called colony rate growth, was determined by numbering the number of cells in micro colonies during the first days following affection in “test” (with preparations) and “control” (without preparations) dishes, by analyzing 50 colonies in each of them. Each “point” included […] three Petri dishes with growing cell colonies in adding specific concentrations of preparations under study. Growth rate of colonies (in %) was calculated according to the formula: […]
Cell numbers in micro colonies were calculated for every “point”. Toxicity of preparations in the selected range of concentrations was judged by cell survival, which was determined by the ratio between numbers of the colonies grown in “test” and “control” dishes.

[3] = test system: stage III-IV ovarian cancer; assay: Efficacy of therapy after two chemotherapy courses; assay type: in vivo, human
Method: Efficacy of therapy was assessed in groups of patients following two courses of the chemotherapy with or without Dicarbamine according to the above described scheme. Efficacy was assessed according to the generally accepted parameters: CR—complete remission, PR—partial remission, SB—stabilization; and Progr. —progression.

[4] = Complete blood analysis of individual ovarian cancer patients; assay type: in vivo, human; settings: for Platelets: in 10^9/L (unit assumed)
Method: The effect of Dicarbamine was studied in 13 patients with stage III-IV ovarian cancer who underwent 77 courses of the chemotherapy according to the scheme: 400 mg/m^2 Carboplatin i.v. drop-wise, once +600 mg/m^2 Cyclophosphan i.v. drop-wise, once; the courses were repeated in 28 days. Dicarbamine was prescribed daily at dose 100 mg orally after meals beginning 5 days prior to the first course and then for three weeks. Dosing duration was 26 days, course dose being 2600 mg. Dicarbamine was given again 5 days prior to the second chemotherapy course, and dosing was continued for 21 days. Total duration of Dicarbamine intake during two the chemotherapy courses was 52 days.
Hematopoiesis parameters were assessed dynamically many times before and after conducted the chemotherapy (control) as well as dynamically before and after Dicarbamine dosing in the test group. Below hematopoiesis parameters in individual patients who received the chemotherapy according to the indicated scheme with Dicarbamine or without it are presented.

[5] = assay type: in vivo, mice
Source text: Two groups of mice are used.

[6] = with Dicarbamine, Day 0, before starting Dicarbamine
[7] = with Dicarbamine, Day 5, before starting course 1 of CT
[8] = with Dicarbamine, Day 21, after termination of Dicarbamine intake
[9] = with Dicarbamine, Day 33, before course 2 of CT
[10] = with Dicarbamine, course 2, Day 28 after course 1 of CT
[11] = with Dicarbamine, course 2, Day 33
[12] = with Dicarbamine, course 2, Day 54
[13] = with Dicarbamine, course 2, Day 61

O=C(O)CCCC(=O)NCCc1c[nH]cn1 [Dicarbamine]
increase in the portion of IIG^2 cells [1]: 12-14%
increase of the portion of interphase tumor cells (IIG^1) [1]: ≈ 25%
portion of proliferating cells (constant) [1]: ≈ 30%
toxicity according to the survival index ([2]; B-16 cells): does not show toxicity
Initial rate of cell proliferation ([2]; D 0.01 μM, 48 hours): 52.9%
Initial rate of cell proliferation ([2]; D 0.01 μM, 72 hours): 61.0%
Initial rate of cell proliferation ([2]; D 1.0 μM, 48 hours): 44.6%
Initial rate of cell proliferation ([2]; D 1.0 μM, 72 hours): 44.6% and 43.6%
Initial rate of cell proliferation ([2]; IN 70.0 IU/ml + D 1.0 μM, 72 hours): 26.1%
Initial rate of cell proliferation ([2]; IN 700.0 IU/ml + D 0.01 μM, 48 hours): 24.9%
Initial rate of cell proliferation ([2]; IN 700.0 IU/ml + D 0.01 μM, 72 hours): 22.0%
Initial rate of cell proliferation ([2]; IN 700.0 IU/ml + D 1.0 μM, 48 hours): 21.5%
Initial rate of cell proliferation ([2]; IN 700.0 IU/ml + D 1.0 μM, 72 hours): 16.0%
CR [3]: 26.6%
CR, number of patients [3]: 4
PR [3]: 46.6%
PR, number of patients [3]: 7
Progr. [3]: 13.3%
Progr., number of patients [3]: 2
SB [3]: 13.5%
SB, number of patients [3]: 2
tumor growth control (CR+PR) [3]: 73.2%
Leukocytes ([4]; chemotherapy + Dicarbamine 100 mg daily, individual patients, course 1, Day 0, before starting Dicarbamine): 5.9 10^9/l and 7.4 10^9/l and 6.6 10^9/l
timing of the third course of CT ([4]; chemotherapy with Dicarbamine, individual patients): in time; also recorded: at term
Neutrophils [4, 6]: 4.2 10^9/l and 5.7 10^9/l and 5.0 10^9/l
Platelets [4, 6]: 170 and 174
Leukocytes [4, 7]: 5.5 10^9/l and 7.2 10^9/l and 5.9 10^9/l
Neutrophils [4, 7]: 4.0 10^9/l and 5.0 10^9/l and 4.2 10^9/l
Platelets [4, 7]: 164 and 165 and 172
Leukocytes [4, 8]: 4.7 10^9/l and 6.6 10^9/l and 5.5 10^9/l
Neutrophils [4, 8]: 3.3 10^9/l and 5.2 10^9/l and 4.4 10^9/l
Platelets [4, 8]: 160 and 162 and 166
Leukocytes [4, 9]: 4.0 10^9/l and 5.2 10^9/l and 5.0 10^9/l
Neutrophils [4, 9]: 2.9 10^9/l and 3.8 10^9/l and 3.4 10^9/l
Platelets [4, 9]: 158 and 167 and 164
Neutrophils [4, 10]: 3.2 10^9/l and 5.2 10^9/l and 3.0 10^9/l
Leukocytes ([4]; with Dicarbamine, course 2, Day 28 after course 1 of CT, before starting Dicarbamine): 4.9 10^9/l and 7.8 10^9/l and 5.6 10^9/l
Platelets [4, 10]: 180 and 165 and 170
Neutrophils [4, 11]: 3.3 10^9/l and 6.0 10^9/l and 3.2 10^9/l
Leukocytes ([4]; with Dicarbamine, course 2, Day 33, before starting course of CT): 5.0 10^9/l and 8.2 10^9/l and 5.8 10^9/l
Platelets [4, 11]: 170 and 160
Neutrophils [4, 12]: 3.1 10^9/l and 6.2 10^9/l and 3.4 10^9/l
Leukocytes ([4]; with Dicarbamine, course 2, Day 54, after termination of Dicarbamine intake): 4.2 10^9/l and 7.6 10^9/l and 5.7 10^9/l
Platelets [4, 12]: 160 and 162 and 176
Neutrophils [4, 13]: 3.0 10^9/l and 5.8 10^9/l and 3.2 10^9/l
Leukocytes ([4]; with Dicarbamine, course 2, Day 61, before course 3 of CT): 4.2 10^9/l and 7.2 10^9/l and 5.5 10^9/l
Platelets [4, 13]: 160 and 157 and 165
Terms of death (CPH 50 + Cysplatin 2 mg/kg): no
Total leukocyte number (CPH 50 + Cysplatin 2 mg/kg, day 0): 11.30 ± 2.30 thousand in mm^3
Total leukocyte number (CPH 50 + Cysplatin 2 mg/kg, day 3): 6.70 ± 1.15 thousand in mm^3
Total leukocyte number (CPH 50 + Cysplatin 2 mg/kg, day 5): 17.00 ± 5.17 thousand in mm^3
Total leukocyte number (CPH 50 + Cysplatin 2 mg/kg, day 7): 14.50 ± 2.00 thousand in mm^3
Total leukocyte number (CPH 50 + Cysplatin 2 mg/kg, day 21): 12.40 ± 0.99 thousand in mm^3
Terms of death (CPH 100 + Cysplatin 4 mg/kg): no
Total leukocyte number (CPH 100 + Cysplatin 4 mg/kg, day 0): 11.30 ± 2.30 thousand in mm^3
Total leukocyte number (CPH 100 + Cysplatin 4 mg/kg, day 3): 4.14 ± 0.60 thousand in mm^3
Total leukocyte number (CPH 100 + Cysplatin 4 mg/kg, day 5): 11.40 ± 1.10 thousand in mm^3
Total leukocyte number (CPH 100 + Cysplatin 4 mg/kg, day 7): 14.90 ± 1.32 thousand in mm^3
Total leukocyte number (CPH 100 + Cysplatin 4 mg/kg, day 21): 11.80 ± 1.32 thousand in mm^3
Total leukocyte number (CPH 200 + Cysplatin 8 mg/kg i.p. once (Dicarbamine group: 0.5 mg/kg daily 20 days), day 0): 11.30 ± 2.30 thousand in mm^3
Total leukocyte number (CPH 200 + Cysplatin 8 mg/kg, day 3): 2.32 ± 0.49 thousand in mm^3
Total leukocyte number (CPH 200 + Cysplatin 8 mg/kg, day 5): 6.60 ± 0.90 thousand in mm^3
Total leukocyte number (CPH 200 + Cysplatin 8 mg/kg, day 7): 10.40 ± 1.54 thousand in mm^3
Total leukocyte number (mouse, in vivo): 12.30 ± 1.56 thousand in mm^3
Cellularity of bone marrow (number of cells) ([5]; CPH 200 mg/kg (Dicarbamine group: 0.5 mg/kg 5 days prior and 5 days after), day 3): 14.5 ± 3.43 millions
Cellularity of bone marrow (number of cells) ([5]; day 5 after CPH): 21.55 ± 1.92 millions
Cellularity of bone marrow (number of cells) ([5]; day 7 after CPH): 32.35 ± 3.57 millions
Cellularity of bone marrow (number of cells) ([5]; day 10 after CPH): 33.8 ± 3.85 millions
Cellularity of bone marrow (number of cells) ([5]; day 13 after CPH): 32.6 ± 5.22 millions
Cellularity of bone marrow (number of cells) ([5]; day 17 after CPH): 28.25 ± 3.02 millions
Cellularity of bone marrow (number of cells) ([5]; day 21 after CPH): 30.4 ± 2.75 millions
